The values below come from publication PMC5108032, “Discovery of a Quinoline-4-carboxamide Derivative with a Novel Mechanism of Action, Multistage Antimalarial Activity, and Potent in Vivo Efficacy” (Journal of Medicinal Chemistry, 2016).

Data set [1] in a line: Kinetic aqueous solubility (laser nephelometry). The format is physicochemical. Conditions: MilliQ water with 1.0% DMSO, aqueous with cosolvent or surfactant or cyclodextrin, kinetic from dmso stock. An excerpt:
(§1) inhibition at top, C= EC50, D= slope, x= inhibitor concentration and y= % inhibition. […]
(§2) reach 100% of inhibition, B was fixed to 100 only when at least 50% of inhibition was reached.
(§3) Plasmodium falciparum late stage (IV-V) gametocyte high content imaging assay Plasmodium falciparum NF54-pfs16-LUC-GFP stage IV-V Gametocytes were produced as described previously.5 Compounds were solubilized in DMSO and serially diluted in three concentrations per log standard curves in DM SO. One µl of compound was subsequently diluted in 25µl of water (4% DMSO) and 5µl transferred into the base of 384 well PerkinElmer CellCarrier plates. […]
Post incubation, 5µl of MitoTracker® Red CM -H2Xros (MTR) solution (0.66ug/ml) was added to all wells and the plates incubated for a further 16hours. The assay plates were then imaged and the number of viable gametocytes determined for test compounds plus 0.4%DMSO and 5µM Puromycin. […]
Assay was performed as previously reported.6 Briefly blood containing P. berghei CTRPp-GFP gametocytes was rapidly harvested from infected mice and introduced to test compounds pre-diluted in ookinete medium (to induce gamete formation and support ookinete development) in 96-well plates. […] All assays were performed in triplicate independent experiments and EC50 values calculated in Graphpad Prism. […]

Data set [2] can be described thus: Mammalian cell growth inhibition counter-screen (resazurin). Format: cell-based, human. Conditions: human, MRC-5 cells (normal diploid human fibroblasts). The procedure: Plasmodium falciparum screening
Assays against P. falciparum were conducted as previously described.1 Cultures of the widely-used malaria reference strain of chloroquine-sensitive Plasmodium falciparum strain 3D7 were maintained in a 5% suspension of human red blood cells (obtained from East of Scotland Blood Transfusion Service, Ninewells Hospital, Dundee) cultured in RPMI 1640 medium (pH 7.3) supplemented with 0.5% Albumax II (Gibco Life Technologies, San Diego, CA), 12 mM sodium bicarbonate, 0.2 mM hypoxanthine and 20 mg/L gentamicin at 37°C, in a humidified atmosphere of 1% O 2, 3% CO2 with a balance of nitrogen. Growth inhibition was quantified using a fluorescence assay utilising the binding of SYBR green to double stranded DNA, which emits a fluorescent signal at 528 nm after excitation at 485nm.2 Mefloquine (potency range 30-60 nM) was used as a drug control to monitor the quality of the assay (Z’ = 0.6 to 0.8, Signal to background >3, where Z’ is a measure of the discrimination between the positive and negative controls on a screen plate). A 96-well [3H]-Hypoxanthine incorporation assay was also developed as a secondary assay in order to validate compounds from the initial screen in an orthogonal platform.3 Compound bioactivity from both assays was expressed as […]
P. falciparum (panel of resistant strains) in vitro assay. (Swiss TPH)
All Plasmodium strains were cultured according to Trager and Jensen and are described at www.beiresources.org (resistant strains: K1, W2, 7G8, TM90C2A, D6 and V1/S, sensitive strain:
NF54). EC50 values were determined in vitro by measuring incorporation of the nucleic acid precursor […]
Mammalian Cell Growth Inhibition assay
A counter-screen against normal diploid human fibroblasts (MRC-5 cell line) was carried out to exclude non-selective, and toxic compounds. The assay was essentially carried out as described previously.4 Cells were plated and incubated overnight to allow them to adhere as monolayers. A working stock of each test compound was transferred to an intermediate 384-well plate and pre-diluted with minimum essential media (MEM). The pre-diluted stocks were then transferred onto the cell monolayers, and the plates were incubated for 68 h. Resazurin, to a final concentration of 50 μM, was added to each well, after which plates were incubated for a further 3 h and measured for fluorescence (λex=528 nm, λem=590 nm)
In vitro Cell Assay Data Analysis.
All data was processed using IDBS ActivityBase® raw data was converted into per cent inhibition through linear regression by setting the high inhibition control as 100% and the no inhibition control as 0%. Quality control criteria for passing plates were as follows: Z’> 0.5, S:B> 3, %CV(no inhibition < 15 . The formula used to calculate Z’ is 1 3× (St D e v _ hi gh + St D e v _ low) . […]
All EC50 Curve fitting was undertaken using XLFit version 4.2 using Model 205 with the following 4 parametric equation: y = A + B A A + ($-&) ,where A=% inhibition at bottom, B=% […]
as §1, §2
as §3, with “plates. Forty-five µl of stage IV-V gametocytes (10%P in 0.1%H) were added to the imaging plates which were in turn sealed with a gas permeable membrane and incubated at 37°C, 5% CO 2, 5% O2, 90% N2 and 60% humidity” for “plates.”
Post incubation, 5µl of MitoTracker® Red CM -H2Xros (MTR) solution (0.66ug/ml) was added to all wells and the plates incubated for a further 16hours. […]
For orientation: Counterscreens check selectivity or assay interference.

In brackets after ≈: the same amount, converted by molar mass.

For orientation: kinetic solubility means the concentration staying in solution when a stock, usually in DMSO, is diluted into the medium. For the molecule `O=C(NCCN1CCCC1)c1cc(NCCCCN2CCOCC2)nc2ccc(Cl)cc12` [Compound 27, 6-Chloro-2-((4-morpholinobutyl)amino)-N-(2-(pyrrolidin-1-yl)ethyl)quinoline-4-carboxamide], the solubility (kinetic) in data set [1] came out at 220 µM (≈ 101 µg/mL).

The EC50 is the concentration that produces a half-maximal response. The low end stands for an effect from little substance, the high end for a need for much substance. With `O=C(NCCN1CCCC1)c1cc(-c2ccc(CN3CCOCC3)cc2Cl)nc2ccc(F)cc12` [Compound 42, 2-(2-Chloro-4-(morpholinomethyl)phenyl)-6-fluoro-N-(2-(pyrrolidin-1-yl)ethyl)quinoline-4-carboxamide], the EC50 at 68 h in data set [2] is over 50 µM.
